Test results reported in patent US8034791B2, “Activation of Egr-1 promoter by DNA damaging chemotherapeutics” (The University of Chicago, priority 2001, dated 2011).
Counter-ions that a name gives are not always drawn.

Legend:
PC-3 xenografts [1] = assay type: in vivo, athymic nude mice; details: vector + IP agent days 1 and 2, cisplatin 9, cyclophosphamide 160, doxorubicin 15, 5-FU 100, gemcitabine 500 mg/kg
Description: (§1) Saline or chemotherapeutic agents administered IP on days 1 and 2, including 9 mg/kg cisplatin, 160 mg/kg cyclophosphamide, 15 mg/kg doxorubicin, 100 mg/kg 5-FU and 500 mg/kg gemcitabine. Animals were euthanized, and xenografts were harvested 24 hrs after the second IP injection. Xenografts were snap-frozen in liquid nitrogen and homogenized in RIPA buffer (150 mM NaCl, 10 mM Tris pH 7.5, 5 mM EDTA pH 7.5, 100 mM PMSF, 1 µg/ml leupeptin and 2 μg/ml aprotinin) using a Brinkman Polytron homogenizer (Kinematica AG, Lucerne, Switzerland). After three freeze-thaw lysis cycles, the homogenate was centrifuged at 7800×g in a Sorvall RC-5C SS34 rotor (Kendro Laboratory Products, Newtown, Conn.) for 10 min at 4° C. TNF-α levels in the supernatants were measured by ELISA as described above.

PC-3 xenografts [2] = assay type: in vivo, nude mice; details: IT vector 5×10^9 p.u. + IP agent vs vector and NS, cisplatin 9, cyclophosphamide 160, doxorubicin 15, 5-FU 100 mg/kg
Description: (§2) In vivo measurement of TNF-α protein. PC-3 (1×10^7 cells) or PROb cells (5×10^6) in 100 μl PBS were injected subcutaneously into the right hind limb of nude mice. Tumor-bearing mice received IT Ad.Egr.TNF (5×10^9 p.u. in 10 μl) with 250 μl of complete media with NS or a chemotherapeutic agent, including cisplatin (9 mg/kg), cyclophosphamide (160 mg/kg), doxorubicin (15 mg/kg), 5-fluorouracil (100 mg/kg) and gemcitabine (500 mg/kg). Each mouse IP injections were administered 20 hrs after transfection, and two consecutive IT and IP injections were given. Animals were euthanized, and xenografts were harvested 48 hrs after the second IP injection. Xenografts were snap-frozen in liquid nitrogen and homogenized in RIPA buffer (150 mM NaCl, 10 mM Tris at pH 7.5, 5 mM EDTA at pH 7.5, 100 mM PMSF, 1 μg/ml leupeptin and 2 μg/ml aprotinin). After three freeze-thaw lysis cycles, the homogenate was centrifuged for 10 minutes at 4° C. TNF-α levels in the supernatants were measured as described above.

PROb xenografts [3] = assay type: in vivo, nude mice; details: IT vector 5×10^9 p.u. + IP agent vs vector plus NS, cisplatin 9, cyclophosphamide 160, doxorubicin 15, 5-FU 100, gemcitabine 500 mg/kg
Description: as §2

PC-3 cells [4] = assay: Chemo-sensitivity by MTS assay, PC-3 cells; assay type: cell-based, human; details: PC-3, Ad.Egr-TNF.11D and chemotherapy 24 hrs
Description: (§3) Chemo-sensitivity of PC-3 and PROb cells as determined by MTS assay. PC-3 and PROb cells were plated at a density of 10^5 cells/100 μl medium in 96-well tissue culture plates and incubated overnight. […] After incubation, 200 μl of complete media, with or without chemotherapeutic agents, was added. Chemotherapeutic agents used were at final concentrations of cisplatin at 46 and 460 μM, doxorubicin at 3 and 300 μM, 5-fluorouracil at 2 and 200 mM and paclitaxel at 1.4 and 140 μM. Media was removed 24 hrs later and each well was rinsed with 200 μl of complete media (CM) and aspirated. 100 μl of CM was then added with 20 μl of CellTiter 96® Aqueous One Solution Cell Proliferation Assay solution (Promega, Madison, Wis.), and the cells were allowed to incubate for 1 hr. Absorbance was measured at 490-650 nm.

PROb xenografts [5] = assay: Xenograft regrowth study, PROb; assay type: in vivo, athymic nude mice; details: day 27, among control, doxorubicin alone and vector alone
Description: Xenograft regrowth studies. […] On days 0 and 3, mice received IT injection of 10 μl of either 5×10^9 p.u. […] IP injections of doxorubicin or NS (2 mg/kg) were administered daily from days 0 through 8. Xenografts were measured twice weekly and tumor volume was calculated according to the formula (length×width×thickness)/2. Fractional tumor volumes (V/V0 where V0=volume on day 0) were calculated and plotted.

PC-3 cells [6] = assay: Chemo-inducibility of Ad.Egr-TNF.11D in vitro, PC-3 cells; details: PC-3 cells, doses used in the chemo-induction experiments (3 μM)
Description: (§4) PC-3 and PROb cells were plated, infected with Ad.Egr.TNF, and incubated as discussed above. After incubation, 200 μl of CM, with or without chemotherapeutic agents, including cisplatin (250 μM), doxorubicin (3 μM), 5-fluorouracil (100 mM), gemcitabine (3 mM) and paclitaxel (14 μM) were added. Conditioned medium was harvested 24 hrs. later, and TNF-α concentration was measured (Quantikine Human TNF-α ELISA kit, R & D Systems, Minneapolis, Minn.).

PC-3 cells [7] = assay: Preliminary in vitro TNF-α induction, PC-3 cells; assay type: cell-based, human; details: vector treated PC-3 cells (100 MOI), 24 hrs; cisplatin 250 μM, doxorubicin 3 μM, 5-FU 20 mM, paclitaxel 14 μM
Description: (§5) In vitro measurement of TNF-α protein. PC-3 and PROb cells were plated in 96-well plates, grown overnight, and infected with Ad.Egr.TNF at 100 multiplicities of infection, incubated for three hrs, and were then treated with cisplatin (250 μM), doxorubicin (3 μM), 5-FU (20 mM) or paclitaxel (14 μM). Supernatants were harvested 24 hrs later and human TNF-α production was quantified by ELISA. Experiments were performed in quintuplicate.

PC-3 xenografts [8] = assay: Xenograft regrowth study, PC-3; assay type: in vivo, athymic nude mice
Description: Xenograft regrowth studies. Treatment was initiated on day 0 at which time mice were assigned to one of 4 treatment groups: control, doxorubicin, Ad.Egr-TNF.11D, and combination of Ad.Egr-TNF.11D and doxorubicin. On days 0 and 3, mice received IT injection of 10 μl of either 5×10^9 p.u. Ad.Egr-TNF.11D, or 10 μl of viral formulation buffer. IP injections of doxorubicin or NS (2 mg/kg) were administered daily from days 0 through 8. Xenografts were measured twice weekly and tumor volume was calculated according to the formula (length×width×thickness)/2. Fractional tumor volumes (V/V0 where V0=volume on day 0) were calculated and plotted.

PROb xenografts [9] = details: PROb xenografts, vector + IP agent vs vector alone; cisplatin 9, cyclophosphamide 160, doxorubicin 15, 5-FU 100, gemcitabine 500 mg/kg
Description: as §1

PROb cells [10] = assay: Chemo-sensitivity by MTS assay, PROb cells; assay type: cell-based, rat; details: Ad.Egr-TNF.11D and chemotherapy 24 hrs
Description: as §3

PROb cells [11] = assay: Preliminary in vitro TNF-α induction, PROb cells; assay type: cell-based, rat; details: PROb cells treated with Ad.TNF (100 MOI), 24 hrs; cisplatin 250 μM, doxorubicin 3 μM, 5-FU 20 mM, paclitaxel 14 μM
Description: as §5

PC-3 xenografts [12] = assay: Analysis of microvessel density (anti-CD31), PC-3 xenografts; assay type: in vivo, athymic nude mice; details: day 27, anti-CD31
Description: Two or three xenografts from each treatment group in the PC-3 regrowth study above were collected and fixed in 10% neutral buffered formalin, embedded in paraffin, cut in 5 μm slices, mounted, baked, cleared in xylene, and rehydrated in decreasing alcohol concentrations (100%-70%) and distilled water. Sections were microwaved in 10 mM citrate buffer at pH 6.0 for 18 min, washed and soaked in 1% hydrogen peroxide/methanol for 20 min prior to blocking with avidin-biotin (Vector Laboratories, Burlingame, Calif.) for 15 min. Slides were incubated with biotin (15 min), washed and blocked with serum-free DAKO protein (DAKO, Carpinteria, Calif.) for 10 min prior to incubation with a 1:50 dilution of goat anti-mouse CD31 antibody (Santa Cruz, Santa Cruz, Calif.) for 60 min at RT. CD-31 staining was visualized on tissue sections following incubation with DAKO biotinylated anti-goat secondary antibody for 30 min and DAB reagent (Vector) for 60 sec. Sections were counterstained with Gill 3 hematoxylin and dehydrated in ethanol (95%-100%) and xylene prior to mounting. All slides were read by an investigator blinded to the treatment groups. Positively stained vessels were counted in 5-10 high power fields (×400) per slide using light microscopy. Blood vessels were identified by endothelial cell staining and by endothelial cells surrounding intraluminal erythrocytes. […]

PROb cells [13] = assay: Chemo-inducibility of Ad.Egr-TNF.11D in vitro, PROb cells; assay type: cell-based, rat; details: vector-infected PROb cells, 24 hrs; cisplatin 250 μM, doxorubicin 3 μM, 5-FU 100 mM, gemcitabine 3 mM, paclitaxel 14 μM
Description: as §4

[14] = higher concentration: cisplatin 460 μM, doxorubicin 300 μM, 5-FU 200 mM, taxol 140 μM
[15] = lower concentration: cisplatin 46 μM, doxorubicin 3 μM, 5-FU 2 mM, taxol 1.4 μM

## COc1cccc2c1C(=O)c1c(O)c3c(c(O)c1C2=O)C[C@@](O)(C(=O)CO)C[C@@H]3O[C@H]1C[C@H](N)[C@H](O)[C@H](C)O1 [doxorubicin, doxorubicin hydrochloride]
PC-3 xenografts [1]
  increase in TNF-α levels: 4.2 fold
PC-3 xenografts [2]
  induced TNF-α: 3.1 fold
PROb xenografts [3]
  increased TNF-α levels: 2.5 fold
PC-3 cells [4]; [14]
  surviving fraction: 30%
PC-3 cells [4]; [15]
  surviving fraction: 90%
PROb xenografts [5]
  tumor growth delay: no difference in tumor growth delay
PC-3 cells [6]
  toxicity to cells: toxic at the doses used
PC-3 cells [7]
  increased TNF levels: 14.5 fold
PC-3 xenografts [8]; PC-3 xenografts, day 23, doxorubicin 2 mg/kg IP daily
  tumor growth: 3 fold
PC-3 xenografts [8]; xenograft regrowth studies in nude mice
  systemic toxicity, including weight loss and deaths: Systemic toxicity, including weight loss and deaths, was observed
PROb xenografts [9]
  induction of TNF-α protein: 2.3 fold
PROb cells [10]; [14]
  surviving fraction: 85%
PROb cells [10]; [15]
  surviving fraction: 100%
PROb cells [11]
  increased TNF levels: 7.3 fold
PC-3 xenografts [12]
  number of vessels per high power field: 6.24±0.35
PROb cells [13]
  increase in TNF-α levels: 7.4 fold
